# Test results reported in article PMC5641330, “Prediction of a Therapeutic Dose for Buagafuran, a Potent Anxiolytic Agent by Physiologically Based Pharmacokinetic/Pharmacodynamic Modeling Starting from Pharmacokinetics in Rats and Human” (Frontiers in Pharmacology, 2017).
# Columns and labels:
# [1] = tested on: P-gp; set-up: method as in Li, 2010; details: ref Li, 2010; cited from earlier work
# [2] = PBPK simulation in rat (GastroPlus)
# From the text: GastroPlus^TM software (version 8.5) was used to perform all simulations, (Simulations Plus, Inc., Lancaster, CA, United States). The absorption of oral formulations from the GI tract was modeled by the advanced compartmental absorption and transit (ACAT^TM) model implemented in GastroPlus ([Agoram et al., 2001]; [Kuentz et al., 2006]; [Huang et al., 2009]; [Zhang et al., 2011]). Input parameters in the ACAT model include three groups: formulation properties, physicochemical properties and pharmacokinetic parameters. […] The immediate release (IR) suspension for rat and IR capsule for human were selected for simulation of buagafuran in GastroPlus^TM. The ACAT model consists of nine compartments that mimic the GI tract. Each GI tract has an associated ASF. ASF is the multiplier used to scale the permeability to account for different surface-to-volume ratios, pH effects, transporter differences, and other factors that affect absorption between different compartments ([Zhang et al., 2011]). Four coefficients C1–C4 are used to calculate ASF. And there are eight basic ASF models in version 8.5. […]
# The pharmacokinetic parameters of unbound fraction in plasma (FUp) were experimentally measured values. […]
# [3] = Plasma protein binding by equilibrium dialysis, human plasma; format: in vitro ADME; details: 0.5–2 μg/mL
# Description: The plasma protein binding of buagafuran (0.5–2 μg/mL) was investigated by equilibrium dialysis. Aliquots (0.5 mL) of plasma were dialyzed against 10 mL phosphate buffered saline containing a ^3H-buagafuran tracer over a membrane with an 8,000- to 12,000-dalton molecular weight cutoff. Dialysis experiment was performed for 60 h at 4 °C. After the dialysis period, 100 μL of the PBS fraction (containing unbound buagafuran) and 100 μL of the plasma fraction (containing both bound and unbound drug) was taken for liquid scintillation counting. The ratio of buagafuran concentration in buffer to that in plasma was applied to calculate the unbound fraction (Fu).
# [4] = Caco-2 transport study; format: in vitro ADME; set-up: Caco-2 Papp: unit not given here; details: human, Caco-2 monolayer
# Description: (§1) Caco-2 Cells from passage 38 were applied to the transport experiments. Cells were seeded on polycarbonate filters (12 mm diameter, pore size 0.4 μm). The cell monolayers were used 21 days post seeding. Buagafuran was dissolved in DMSO. It was further diluted to 50 μM with HBSS. The final buagafuran concentration was 50 μM. For absorptive (AP→BL) permeability test, drug solution (0.4 mL) was added to the apical chamber. For secretive (BL→AP) permeability experiments, drug solution (0.6 mL) was added to the basolateral chamber, then 50 μL samples (n = 3) were withdrawn from receiver chamber at specified times and 50 μL fresh buffer was added in the receiver chamber. The experiments were carried out in triplicate at 4 time points.
# (§2) Transport of buagafuran was tested using a linear model. The regression line was validated by inspection with naked eye and the value of correlation coefficient was R > 0.9. The apparent permeability coefficient (Papp) was calculated by the formula Papp = (ΔQ/Δt)/ACo, where ΔQ/Δt is the transport rate (nmol/s), which remained approximately constant in time, A is the well membrane area (0.6 cm^2), and Co is the initial concentration of buagafuran (μM). The efflux rate (ER) was the ratio of the Papp from the basolateral to apical cells versus the Papp from the apical to basolateral cells. Transport of the tested drug is linear over the incubation times of 30–120 min.
# [5] = tested on: Caco-2 cells; experiment: Caco-2 transport study; format: in vitro ADME; set-up: Caco-2 Papp: unit not given here; details: PBPK input parameter; 50 μM
# Description: as §1, §2
# [6] = tested on: healthy volunteers; details: cited from earlier work
smiles,measurement,setting,value
CCCCC1=CCC[C@@]2(C)CC[C@@H]3C[C@]12OC3(C)C [buagafuran],substrate of the transporter P-gp,[1],substrate of the transporter P-gp
same,Kp,"[2]; brain, oral, optimized by parameter sensitivity analysis, also used for human simulation",6.7
same,input (refined) CLhep,[2]; optimized by comparing fitting with observed PK data,36.8 mL/min/kg
same,concentration dependence of plasma protein binding,[3]; human plasma,no evident concentration-dependent binding
same,fraction unbound at 60 h,"[3]; human, plasma, equilibrium dialysis, read-out: Fup human (unbound fraction in human plasma)",0.04
same,Papp A→B at 50 μM,[4]; read-out: apparent permeability coefficient (AP to BL),195 ×10⁻⁶ cm/s
same,Papp B→A at 50 μM,[4]; read-out: apparent permeability coefficient (BL to AP),438 ×10⁻⁶ cm/s
same,Caco-2 Papp,[5],19.5 × 10^-5
same,well tolerated multiple doses,"[6]; healthy volunteers, phase I, ref Wang et al., 2011, Chen X. et al., 2013, Yang et al.",up to 120 mg twice daily
same,most common side effect,"[6]; phase I trials, ref Zhang, 1997, Li et al., 2001",drowsiness
